Measured values published in patent EP2668952A2, “Aqueous formulations of bisphosphonates, vitamin D and benzyl alcohol suitable for subcutaneous or intramuscular use” (Romano, Paolo, priority 2012, dated 2013).

Experiments:
[1] = Particulate matter in water solutions of zoledronic acid and cholecalciferol with organic solvents; format: physicochemical; parameters: key: *: opalescent; **: turbid; ***: precipitate; details: zoledronic acid 5.0 mg/3ml, cholecalciferol 0.35 mg/3ml
Description: (§1) In order to assess the degree of water solubilization of bisphosphonates and vitamin D by addition of variable amounts of benzyl alcohol and other water mixable organic solvents, 2 mother solutions at concentration of 100 mg disodium clodronate or 5 mg zoledronic acid in 2 ml water for injection, examples of respectively high and low dose bisphosphonates, were prepared and buffered with sodium bicarbonate to pH 6.5.
(§2) Two-ml samples of both solutions with the two bisphosphonates mentioned above were then diluted with water to approx. 3 ml (3 samples: more precisely 2997 µl, 2991µl, and 2970 µl), to 2.7 ml (1 sample) and to 2.4 ml (1 sample).A mother solution containing cholecalciferol in benzyl alcohol or other water mixable organic solvents in a ratio of 0.35 mg : 3.0 mg respectively (11.67% w/w) was also prepared and 2 series of 5 samples of 3.35 mg of it were taken and kept as such (1 sample) or diluted with 6.0 mg, 27.0 mg, 297.0 and 597.0 mg respectively of the same solvent (4 samples).The 5 cholecalciferol solution samples were then added, under slow stirring, to the 5 solution samples of each bisphosphonate in the order, so as to give mixtures with solvent concentration of 0.1, 0.3, 1.0, 10.0 and 20.0% (w/v), left to stand for 10 minutes and then examined according to the microscopic particle count test or visually (an instrumental particle counter was unnecessary).
Table Vb: particulate matter in water solutions of zoledronic acid 5.0 mg/3ml and cholecalciferol 0.35 mg / 3ml, containing different % concentrations (w/v) of organic solvents.

[2] = Particulate matter in water solutions of disodium clodronate and cholecalciferol with organic solvents; format: physicochemical; parameters: key: *: opalescent; **: turbid; ***: precipitate; details: disodium clodronate 100 mg/3ml, cholecalciferol 0.35mg/3ml
Description: as §1, §2
Table Va: particulate matter in water solutions of disodium clodronate 100 mg/3ml and cholecalciferol 0.35mg / 3ml, containing different % concentrations (w/v) of organic solvents.

[3] = 10.0 % (w/v) solvent, count or visual symbol
[4] = 20.0 % (w/v) solvent, visual symbol
[5] = 10 % (w/v) solvent, count or visual symbol
[6] = 20 % (w/v) solvent, visual symbol

Row | Molecule | Particulate matter ≥ 10µm per ml ([1]; 0.1 % (w/v) solvent) | Particulate matter ≥ 10µm per ml ([1]; 0.3 % (w/v) solvent) | Particulate matter ≥ 10µm per ml ([1]; 1.0 % (w/v) solvent) | Particulate matter ≥ 10µm per ml [1, 3] | Particulate matter ≥ 10µm per ml [1, 4] | Particulate matter ≥ 10µm per ml ([2]; 0.1 % (w/v) solvent) | Particulate matter ≥ 10µm per ml ([2]; 0.3 % (w/v) solvent) | Particulate matter ≥ 10µm per ml ([2]; 1.0 % (w/v) solvent) | Particulate matter ≥ 10µm per ml [2, 5] | Particulate matter ≥ 10µm per ml [2, 6]
1 | OCc1ccccc1 [Benzyl alcohol] | 10 per ml | 0 per ml | 0 per ml | 0 per ml | * | 8 per ml | 0 per ml | 0 per ml | 0 per ml | *
2 | CCO [Ethanol] | 68 per ml | 22 per ml | 16 per ml | * | ** | 75 per ml | 23 per ml | 48 per ml | ** | ***
3 | Sorbitane monoleate [Sorbitane monoleate (SPAN® 80)] |  |  |  |  |  | 83 per ml | 74 per ml | 56 per ml | ** | ***
